Assay results as given in ChEMBL document CHEMBL5247632, “Current approaches and strategies to identify Hedgehog signaling pathway inhibitors for cancer therapy” (Eur J Med Chem, 2022).
Values belong to the compound of their own block, whether it stands above or below them. Numbered stars: 1 amine (or outer) side, 2 acyl side, 3 side chain; on linkers, the order of the positions; unused ones are H or OH. Bridge positions count the residues as written; N and C are the ends. Peptide text beside a SMILES is read from it. CH2CH2 = C(C[*:2])[*:1]

Columns and labels:
[1] = target: Sonic hedgehog protein (Homo sapiens, UniProt Q15465); test: Binding affinity to Shh (unknown origin) assessed as dissociation constant
Chain of Sonic hedgehog protein (Q15465 24-197 limits assumed): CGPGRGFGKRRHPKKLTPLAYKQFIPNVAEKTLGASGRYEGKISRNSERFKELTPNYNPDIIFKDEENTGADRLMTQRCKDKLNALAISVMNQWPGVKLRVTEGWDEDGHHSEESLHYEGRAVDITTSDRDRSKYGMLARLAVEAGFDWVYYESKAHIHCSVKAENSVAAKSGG

[2] = Inhibition of hedgehog signalling in Shh-stimulated mouse NIH3T3 cells coexpressing firefly luciferase gene under control of Gli-promoter and renilla gene under control of constitutive promoter assessed as inhibition of Shh-N induced luciferase expression by dual luciferase reporter assay; format: cell-based
[3] = Inhibition of hedgehog signalling pathway in mouse Shh Light II cells expressing Gli-luciferase reporter gene assessed as inhibition of SHHN-induced luciferase activity; format: cell-based
[4] = Inhibition of hedgehog signalling pathway in mouse NIH3T3 cells by Gli-Bla reporter assay; format: cell-based
[5] = target: Protein smoothened (Homo sapiens, UniProt Q99835, D473H); test: Antagonist activity at SMO D473H mutant (unknown origin) expressed in mouse TM3 cells coexpressing Gli-luc reporter gene assessed as inhibition of Hh-Ag1.5 induced Gli luciferase activity incubated for 48 hrs by luminescence assay; format: cell-based
Chain of Protein smoothened (Q99835 28-787 D473H limits assumed): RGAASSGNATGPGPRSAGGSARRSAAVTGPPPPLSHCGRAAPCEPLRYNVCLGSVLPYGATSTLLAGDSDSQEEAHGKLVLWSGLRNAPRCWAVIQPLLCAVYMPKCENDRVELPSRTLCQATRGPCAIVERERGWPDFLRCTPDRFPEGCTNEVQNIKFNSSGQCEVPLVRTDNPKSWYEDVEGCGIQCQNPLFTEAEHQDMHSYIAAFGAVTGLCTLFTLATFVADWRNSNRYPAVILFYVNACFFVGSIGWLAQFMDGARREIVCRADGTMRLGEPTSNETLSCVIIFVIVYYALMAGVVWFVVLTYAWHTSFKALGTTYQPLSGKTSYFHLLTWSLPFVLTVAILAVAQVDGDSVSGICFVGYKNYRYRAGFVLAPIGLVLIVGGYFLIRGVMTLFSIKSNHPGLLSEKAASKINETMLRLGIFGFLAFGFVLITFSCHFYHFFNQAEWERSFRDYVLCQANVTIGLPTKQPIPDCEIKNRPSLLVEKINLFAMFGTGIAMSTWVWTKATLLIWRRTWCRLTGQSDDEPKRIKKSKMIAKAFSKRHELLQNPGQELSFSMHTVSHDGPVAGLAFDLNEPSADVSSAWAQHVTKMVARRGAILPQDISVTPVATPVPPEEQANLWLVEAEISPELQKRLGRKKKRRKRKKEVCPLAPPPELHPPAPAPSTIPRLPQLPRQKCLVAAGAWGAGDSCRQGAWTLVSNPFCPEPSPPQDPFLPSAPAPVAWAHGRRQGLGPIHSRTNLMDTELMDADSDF

Kd [1]: 170 nM
IC50 [2]: 250 nM
Structure (SMILES): CSCC[C@@H]1NC(=O)[C@H](C)NC(=O)[C@H](CCC(=O)O)NC(=O)[C@@H](NC(=O)[C@H](Cc2c[nH]c3ccccc23)NC(=O)[C@H](CO)NC(=O)[C@H](CC(C)C)NC(=O)[C@@H](NC(C)=O)[C@@H](C)O)Cc2ccc(cc2)OCCSC[C@@H](C(=O)N[C@H](C(=O)N[C@@H](CC(=O)O)C(=O)O)[C@@H](C)O)NC(=O)[C@H](CCSC)NC(=O)[C@H](CC(=O)O)NC1=O (Ac-TLSWYEAMDMCTD-OH; linker 5-11 via CH2CH2)

IC50 [3]: 500 nM
Structure (SMILES): CCC(C)n1ncn(-c2ccc(N3CCN(c4ccc(OCC5COC(Cn6cncn6)(c6ccc(Cl)cc6Cl)O5)cc4)CC3)cc2)c1=O (stereo not given) [ITRACONAZOLE]

IC50 [4]: 7 nM
Structure (SMILES): CS(=O)(=O)c1ccc(C(=O)Nc2ccc(Cl)c(-c3ccccn3)c2)c(Cl)c1 [VISMODEGIB]

IC50 [5]: 50 nM
Structure (SMILES): CC1C(=O)N(c2ccc(Cl)cc2)C(=O)N1Cc1ccccc1 (stereo not given)
